From US20230271964A1, “5-AMINO-8-(4-PYRIDYL)-[1,2,4]TRIAZOLO[4,3-C]PYRIMIDIN-3-ONE COMPOUNDS FOR USE AGAINST CANCER” (ASTRAZENECA AB, priority 2020, published 2023)

Columns and labels:
[1] = biological target: human adenosine A2A receptor (Homo sapiens (Human), UniProt P29274); experiment: Adenosine receptor inhibition binding assay, [3H]ZM241385, HEK293 A2A receptor membranes; details: 1 nM [3H]ZM241385, HEK293-hA2A membranes, 25° C., 1 h, Ki from IC50 by Cheng-Prusoff; for Ki: read-out: A2A pKi (converted)
Experimental: (§1) Inhibition binding assays were performed using 0.2 µg of membranes prepared from HEK293 cells infected with BacMam human adenosine A2A receptor or 1.4 µg of membranes prepared from HEK293 cells infected with BacMam human adenosine A1 receptor. Membranes were incubated in 50 mM Tris-HCl (HEK293-hA2A; pH 7.4) or 50 mM Tris-HCl, 100 mM NaCl, 10 mM MgCl2 (CHO-hA1; pH 7.4) in the presence of varying concentrations of test compound and 1 nM [^3H]ZM241385 (HEK293-hA2A) or [^3H]DPCPX (CHO-hA1) at 25° C. for 1 h. The assay was then terminated by rapid filtration onto GF/B grade Unifilter plates using a TomTec cell harvester, followed by 5 × 0.5 ml washes with ddH2O. Nonspecific binding was defined in the presence of 1 µM CGS 15943 (HEK293-hA2A) or 1 µM DPCPX (CHO-hA1). Bound radioactivity was determined by liquid scintillation counting and inhibition curves were analysed using a four-parameter logistic equation. IC50 values were converted to Ki values with the Cheng-Prusoff equation using a KD value derived from saturation binding studies.

[2] = biological target: human adenosine A1 receptor (Homo sapiens (Human), UniProt P30542); experiment: Adenosine receptor inhibition binding assay, [3H]DPCPX, A1 receptor membranes; details: 1 nM [3H]DPCPX, 25° C., 1 h, Ki from IC50 by Cheng-Prusoff; for Ki: read-out: A1 pKi (converted)
Experimental: as §1

human adenosine A1 receptor, sequence (P30542 whole entry): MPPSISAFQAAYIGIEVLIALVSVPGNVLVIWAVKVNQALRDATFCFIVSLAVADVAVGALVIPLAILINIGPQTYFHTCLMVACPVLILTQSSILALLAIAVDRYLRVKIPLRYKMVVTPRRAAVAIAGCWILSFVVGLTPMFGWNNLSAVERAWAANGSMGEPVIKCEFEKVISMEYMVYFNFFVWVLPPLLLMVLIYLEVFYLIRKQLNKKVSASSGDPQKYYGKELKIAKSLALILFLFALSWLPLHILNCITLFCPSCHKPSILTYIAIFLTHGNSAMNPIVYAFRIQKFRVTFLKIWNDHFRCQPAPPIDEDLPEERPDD
human adenosine A2A receptor, sequence (P29274 whole entry): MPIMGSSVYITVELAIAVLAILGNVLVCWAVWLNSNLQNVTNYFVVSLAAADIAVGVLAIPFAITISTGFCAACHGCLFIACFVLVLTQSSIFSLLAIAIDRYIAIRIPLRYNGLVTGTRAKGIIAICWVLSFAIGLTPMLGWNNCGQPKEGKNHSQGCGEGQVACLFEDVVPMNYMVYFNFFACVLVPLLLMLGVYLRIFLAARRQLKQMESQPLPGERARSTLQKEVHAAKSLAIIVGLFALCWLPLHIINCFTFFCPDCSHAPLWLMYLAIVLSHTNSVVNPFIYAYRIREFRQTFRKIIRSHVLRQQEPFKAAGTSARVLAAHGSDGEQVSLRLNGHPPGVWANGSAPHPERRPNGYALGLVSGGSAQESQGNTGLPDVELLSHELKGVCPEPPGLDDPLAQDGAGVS

Row | A2A pKi [1] | A1 pKi [2] | Ki [1] | Ki [2] | SMILES
1 | 8.1 | 6.4 |  |  | Cc1cc(-c2c(-c3ccccc3)nc(N)n3c(=O)n(C[C@H]4CC(F)(F)CN4)nc23)cc(C)n1 [Example 2-12, 5-amino-2-[[(2R)-4,4-difluoropyrrolidin-2-yl]methyl]-8-(2,6-dimethyl-4-pyridyl)-7-phenyl-[1,2,4]triazolo[4,3-c]pyrimidin-3-one]
2 | 8.2 | 6.3 |  |  | COCCN1CCC[C@@H]1Cn1nc2c(-c3cc(C)nc(C)c3)c(-c3ccccc3)nc(N)n2c1=O [Example 2-10, 5-amino-8-(2,6-dimethyl-4-pyridyl)-2-[[(2R)-1-(2-methoxyethyl)pyrrolidin-2-yl]methyl]-7-phenyl-[1,2,4]triazolo[4,3-c]pyrimidin-3-one]
3 | 9.8 | 7.8 |  |  | Cc1cc(-c2c(-c3ccccc3)nc(N)n3c(=O)n(Cc4nccn4C)nc23)cc(C)n1 [Example 1-11, 5-amino-8-(2,6-dimethyl-4-pyridyl)-2-[(1-methylimidazol-2-yl)methyl]-7-phenyl-[1,2,4]triazolo[4,3-c]pyrimidin-3-one]
4 | 9.3 | 7.2 |  |  | Cc1cc(-c2c(-c3ccccc3)nc(N)n3c(=O)n(Cc4ccn(C)n4)nc23)cc(CO)n1 [Example 1-45, 5-amino-8-[2-(hydroxymethyl)-6-methyl-4-pyridyl]-2-[(1-methylpyrazol-3-yl)methyl]-7-phenyl-[1,2,4]triazolo[4,3-c]pyrimidin-3-one]
5 |  |  | 0.316 nM | 158 nM | [2H]c1c([2H])c([2H])c(-c2nc(N)n3c(=O)n(Cc4ncoc4C)nc3c2-c2cc(C)nc(CO)c2)c([2H])c1[2H] [Example 1-47, 5-amino-8-[2-(hydroxymethyl)-6-methyl-4-pyridyl]-2-[(5-methyloxazol-4-yl)methyl]-7-(2,3,4,5,6-pentadeuteriophenyl)-[1,2,4]triazolo[4,3-c]pyrimidin-3-one]
6 | 8.9 | 6.7 |  |  | Cc1cc(-c2c(-c3ccccc3)nc(N)n3c(=O)n(Cc4coc(C)n4)nc23)cc(C)n1 [Example 1-15, 5-amino-8-(2,6-dimethyl-4-pyridyl)-2-[(2-methyloxazol-4-yl)methyl]-7-phenyl-[1,2,4]triazolo[4,3-c]pyrimidin-3-one]
7 |  |  | 1.58 nM | 316 nM | [2H]c1c([2H])c([2H])c(-c2nc(N)n3c(=O)n(Cc4cocn4)nc3c2-c2cc(C)nc(CO)c2)c([2H])c1[2H] [Example 1-49, 5-amino-8-[2-(hydroxymethyl)-6-methyl-4-pyridyl]-2-(oxazol-4-ylmethyl)-7-(2,3,4,5,6-pentadeuteriophenyl)-[1,2,4]triazolo[4,3-c]pyrimidin-3-one]
8 | 8.1 | 7.1 |  |  | COc1cccc(-c2nn(Cc3ccccc3)cc2Cn2nc3c(-c4cc(C)nc(C)c4)c(-c4ccccc4)nc(N)n3c2=O)c1 [Example 1-33, 5-amino-2-[[1-benzyl-3-(3-methoxyphenyl)pyrazol-4-yl]methyl]-8-(2,6-dimethyl-4-pyridyl)-7-phenyl-[1,2,4]triazolo[4,3-c]pyrimidin-3-one]
9 | 7.8 | 6.7 |  |  | Cc1cc(-c2c(-c3ccccc3)nc(N)n3c(=O)n(C(C)c4cccs4)nc23)cc(C)n1 (stereo not shown) [Example 1-8, 5-amino-8-(2,6-dimethyl-4-pyridyl)-7-phenyl-2-[1-(2-thienyl)ethyl]-[1,2,4]triazolo[4,3-c]pyrimidin-3-one]
10 |  |  | 0.794 nM | 1260 nM | [2H]c1c([2H])c([2H])c(-c2nc(N)n3c(=O)n(C[C@H]4CCCO4)nc3c2-c2cc(CO)nc(OC)c2)c([2H])c1[2H] [Example 2-36, 5-amino-8-[2-(hydroxymethyl)-6-methoxy-4-pyridyl]-7-(2,3,4,5,6-pentadeuteriophenyl)-2-[[(2R)-tetrahydrofuran-2-yl]methyl]-[1,2,4]triazolo[4,3-c]pyrimidin-3-one]
11 | 9.0 | 7.1 |  |  | Cc1cc(-c2c(-c3ccccc3)nc(N)n3c(=O)n(Cc4ccnn4C)nc23)cc(C)n1 [Example 1-12, 5-amino-8-(2,6-dimethyl-4-pyridyl)-2-[(2-methylpyrazol-3-yl)methyl]-7-phenyl-[1,2,4]triazolo[4,3-c]pyrimidin-3-one]
12 | 7.2 | 5.7 |  |  | Cc1cc(-c2c(-c3ccccc3)nc(N)n3c(=O)n(CCc4nnn(C)n4)nc23)cc(C)n1 [Example 1-6, 5-amino-8-(2,6-dimethyl-4-pyridyl)-2-[2-(2-methyltetrazol-5-yl)ethyl]-7-phenyl-[1,2,4]triazolo[4,3-c]pyrimidin-3-one]
13 | 8.2 | 5.9 |  |  | Cc1cc(-c2c(-c3ccccc3)nc(N)n3c(=O)n(C[C@@H]4C[C@H](O)CN4)nc23)cc(C)n1 [Example 2-22, 5-amino-8-(2,6-dimethyl-4-pyridyl)-2-[[(2S,4S)-4-hydroxypyrrolidin-2-yl]methyl]-7-phenyl-[1,2,4]triazolo[4,3-c]pyrimidin-3-one]
14 | 9.1 | 7.2 |  |  | Cc1cc(-c2c(-c3ccccc3)nc(N)n3c(=O)n(Cc4nccn4C)nc23)cc(CO)n1 [Example 1-41, 5-amino-8-[2-(hydroxymethyl)-6-methyl-4-pyridyl]-2-[(1-methylimidazol-2-yl)methyl]-7-phenyl-[1,2,4]triazolo[4,3-c]pyrimidin-3-one]
15 | 7.7 | 6.8 |  |  | Cc1cc(-c2c(-c3ccccc3)nc(N)n3c(=O)n(C4CCN(C(=O)OC(C)(C)C)C4)nc23)cc(C)n1 (stereo not shown) [Example 2-1, tert-butyl 3-[5-amino-8-(2,6-dimethyl-4-pyridyl)-3-oxo-7-phenyl-[1,2,4]triazolo[4,3-c]pyrimidin-2-yl]pyrrolidine-1-carboxylate]
16 | 7.9 | 5.9 |  |  | Cc1cc(-c2c(-c3ccccc3)nc(N)n3c(=O)n(CCc4ncc[nH]4)nc23)cc(C)n1 [Example 1-3, 5-amino-8-(2,6-dimethyl-4-pyridyl)-2-[2-(1H-imidazol-2-yl)ethyl]-7-phenyl-[1,2,4]triazolo[4,3-c]pyrimidin-3-one]
17 | 7.4 | 5.7 |  |  | Cc1cc(-c2c(-c3ccccc3)nc(N)n3c(=O)n(C4CCNC4)nc23)cc(C)n1 (stereo not shown) [Example 2-2, 5-amino-8-(2,6-dimethyl-4-pyridyl)-7-phenyl-2-pyrrolidin-3-yl-[1,2,4]triazolo[4,3-c]pyrimidin-3-one]
18 | 8.6 | 7.1 |  |  | Cc1cc(-c2c(-c3ccccc3)nc(N)n3c(=O)n(Cc4ccn[nH]4)nc23)cc(C)n1 [Example 1-25, 5-amino-8-(2,6-dimethyl-4-pyridyl)-7-phenyl-2-(1H-pyrazol-5-ylmethyl)-[1,2,4]triazolo[4,3-c]pyrimidin-3-one]
19 | 8.4 | 6.1 |  |  | COCCN1CCC[C@H]1Cn1nc2c(-c3cc(C)nc(C)c3)c(-c3ccccc3)nc(N)n2c1=O [Example 2-9, 5-amino-8-(2,6-dimethyl-4-pyridyl)-2-[[(2S)-1-(2-methoxyethyl)pyrrolidin-2-yl]methyl]-7-phenyl-[1,2,4]triazolo[4,3-c]pyrimidin-3-one]
20 | 8.5 | 6.9 |  |  | Cc1cc(-c2c(-c3ccccc3)nc(N)n3c(=O)n(Cc4cncn4C)nc23)cc(C)n1 [Example 1-18, 5-amino-8-(2,6-dimethyl-4-pyridyl)-2-[(3-methylimidazol-4-yl)methyl]-7-phenyl-[1,2,4]triazolo[4,3-c]pyrimidin-3-one]
